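Grown in 96-well plates, cells were treated for 48 hours with each compound at five concentrations. Insufficient inhibition: endpoint recorded as highest concentration tested. TGI: total growth inhibition.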

Among the test systems are SK-MEL-2 melanoma; HS 578T breast; UO-31 renal; SF-295 CNS; SNB-19 CNS; HT29 colon; COLO 205 colon; SF-268 CNS; ACHN renal; MOLT-4 leukemia; SK-MEL-5 melanoma; CAKI-1 renal; SW-620 colon; MDA-N; UACC-257 melanoma; K-562 leukemia; UACC-62 melanoma; HCT-15 colon; T-47D breast.
Common to all, as to assay: inhibition of tumour cell growth, NCI panel, 48 h

Take `OC1(c2ccc3ccccc3c2)c2ccc3ccccc3c2C2=NCCN21` (configuration not stated): the TGI with SK-MEL-2 melanoma was over 100 µM; in the experiment on HS 578T breast it was 53 µM; with UO-31 renal, over 100 µM; in the experiment on SF-295 CNS, over 100 µM; with SNB-19 CNS, over 100 µM; with HT29 colon, over 100 µM. The TGI in the experiment on COLO 205 colon, with SF-268 CNS, in the experiment on ACHN renal, in the experiment on MOLT-4 leukemia, in the experiment on SK-MEL-5 melanoma and in the experiment with CAKI-1 renal was over 100 µM throughout. For the same molecule, the TGI with SW-620 colon, with MDA-N, in the experiment with UACC-257 melanoma, in the experiment on K-562 leukemia, in the experiment on UACC-62 melanoma and in the experiment on HCT-15 colon was over 100 µM in each case. Also, the TGI in the experiment on T-47D breast is over 100 µM.
On to `O=C(/C=C/c1ccc(F)c(F)c1)OCCc1ccccc1`, for which the TGI with SK-MEL-2 melanoma, with HS 578T breast, with UO-31 renal, in the experiment with SF-295 CNS, with SNB-19 CNS and in the experiment with HT29 colon was over 100 µM each time. Besides, the TGI with COLO 205 colon, in the experiment with SF-268 CNS, in the experiment on ACHN renal, in the experiment on MOLT-4 leukemia, in the experiment with SK-MEL-5 melanoma and in the experiment on CAKI-1 renal was over 100 µM throughout. In addition, the TGI in the experiment with SW-620 colon, in the experiment with MDA-N, in the experiment with UACC-257 melanoma, in the experiment with K-562 leukemia, with UACC-62 melanoma and with HCT-15 colon was over 100 µM throughout. In the experiment with T-47D breast, this molecule gave a TGI of over 100 µM.
In the case of `CCOC(=O)[C@H]1C[C@]23CN(C(=O)OC(C)(C)C)CC[C@H]2CCC2(SCCCS2)[C@@H]3N1C`, the TGI in the experiment on SK-MEL-2 melanoma was 63.3 µM; in the experiment with HS 578T breast, over 100 µM; in the experiment with UO-31 renal it was over 100 µM; with SF-295 CNS, over 100 µM; in the experiment with SNB-19 CNS, over 100 µM; in the experiment on HT29 colon it was 53.3 µM. In addition, the TGI with COLO 205 colon is over 100 µM; in the experiment with SF-268 CNS, over 100 µM; in the experiment on ACHN renal, over 100 µM; in the experiment with MOLT-4 leukemia it was over 100 µM; in the experiment on SK-MEL-5 melanoma it was 37.4 µM; in the experiment on CAKI-1 renal it was over 100 µM. For the same molecule, the TGI in the experiment on SW-620 colon is over 100 µM; in the experiment with MDA-N, over 100 µM; in the experiment with UACC-257 melanoma, 77.5 µM; in the experiment with K-562 leukemia, over 100 µM; in the experiment on UACC-62 melanoma it was over 100 µM; in the experiment on HCT-15 colon, over 100 µM. The same molecule showed a TGI with T-47D breast of over 100 µM.
For `NC(N)=N/N=C/c1ccc(O)c(C(=O)O)c1`, the TGI in the experiment on SK-MEL-2 melanoma, in the experiment on HS 578T breast, in the experiment with UO-31 renal, with SF-295 CNS, in the experiment on SNB-19 CNS and with HT29 colon was over 100 µM each time. The TGI in the experiment on COLO 205 colon, in the experiment on SF-268 CNS, with ACHN renal, in the experiment with MOLT-4 leukemia, in the experiment on SK-MEL-5 melanoma and in the experiment with CAKI-1 renal was over 100 µM in each case. For the same molecule, the TGI with SW-620 colon, in the experiment with MDA-N, in the experiment on UACC-257 melanoma, with K-562 leukemia, in the experiment with UACC-62 melanoma and in the experiment with HCT-15 colon was over 100 µM each time. In addition, the TGI in the experiment with T-47D breast is over 100 µM.
For the molecule `CCOC(=O)CC(N1CC1)N1CC1`, the TGI in the experiment with SK-MEL-2 melanoma, with HS 578T breast, in the experiment on UO-31 renal, in the experiment with SF-295 CNS, with SNB-19 CNS and in the experiment with HT29 colon was over 10 µM in each case. The TGI with COLO 205 colon, in the experiment on SF-268 CNS, with ACHN renal, in the experiment on MOLT-4 leukemia, with SK-MEL-5 melanoma and with CAKI-1 renal was over 10 µM in each case. For the same molecule, the TGI in the experiment with SW-620 colon, in the experiment with MDA-N, with UACC-257 melanoma, in the experiment with K-562 leukemia, with UACC-62 melanoma and with HCT-15 colon was over 10 µM throughout. This molecule had a TGI in the experiment on T-47D breast of over 10 µM.
With `Cc1cc(=O)[nH]c2c3c(ccc12)OC(C)(C)C=C3`, the TGI in the experiment on SK-MEL-2 melanoma is over 100 µM; with HS 578T breast it was 32.8 µM; with UO-31 renal it was over 100 µM; in the experiment with SF-295 CNS, over 80.4 µM; in the experiment with SNB-19 CNS it was over 67.3 µM; in the experiment with HT29 colon it was over 56.4 µM. Further, the TGI in the experiment with COLO 205 colon is 12.2 µM; in the experiment with SF-268 CNS, over 100 µM; with ACHN renal it was over 100 µM; with MOLT-4 leukemia, over 100 µM; with SK-MEL-5 melanoma it was over 100 µM; in the experiment on CAKI-1 renal, over 100 µM. Besides, the TGI with SW-620 colon was over 100 µM; in the experiment on MDA-N it was 4.29 µM; in the experiment with UACC-257 melanoma, over 100 µM; in the experiment on K-562 leukemia it was over 100 µM; in the experiment on UACC-62 melanoma it was over 100 µM; in the experiment on HCT-15 colon, over 100 µM. Also, the TGI in the experiment with T-47D breast was over 100 µM.
On to `O=[N+]([O-])c1ccc(N2N=C(c3ccc4ccccc4c3O)CC2c2ccc(Cl)cc2Cl)c([N+](=O)[O-])c1` (configuration not stated), for which the TGI in the experiment on SK-MEL-2 melanoma is over 100 µM; in the experiment on HS 578T breast it was 95.3 µM; in the experiment on UO-31 renal, over 100 µM; in the experiment with SF-295 CNS, over 100 µM; in the experiment with SNB-19 CNS, over 100 µM; with HT29 colon, over 100 µM. Further, the TGI in the experiment on COLO 205 colon was over 100 µM; with SF-268 CNS, over 100 µM; in the experiment with ACHN renal, over 100 µM; in the experiment with MOLT-4 leukemia it was 38 µM; with SK-MEL-5 melanoma, over 100 µM; in the experiment on CAKI-1 renal, over 100 µM. For the same molecule, the TGI is over 100 µM in the experiment on SW-620 colon; over 100 µM with MDA-N; over 100 µM in the experiment on UACC-257 melanoma; 35.5 µM with K-562 leukemia; over 100 µM in the experiment with UACC-62 melanoma; over 100 µM with HCT-15 colon. In the experiment on T-47D breast, this molecule returned a TGI of over 100 µM.
In the case of `CC(=O)O/C=C\OC1CCCC1`, the TGI in the experiment with SK-MEL-2 melanoma, in the experiment with HS 578T breast, in the experiment with UO-31 renal, in the experiment with SF-295 CNS, in the experiment on SNB-19 CNS and in the experiment on HT29 colon was over 100 µM throughout. Besides, the TGI in the experiment with COLO 205 colon, in the experiment on SF-268 CNS, in the experiment on ACHN renal, with MOLT-4 leukemia, with SK-MEL-5 melanoma and with CAKI-1 renal was over 100 µM throughout. For the same molecule, the TGI in the experiment on SW-620 colon, in the experiment with MDA-N, in the experiment with UACC-257 melanoma, in the experiment with K-562 leukemia, in the experiment on UACC-62 melanoma and in the experiment on HCT-15 colon was over 100 µM each time. In the experiment on T-47D breast, this molecule yielded a TGI of over 100 µM.

The values above are taken from PubChem BioAssay (NCI).
